Results taken from patent US20080262021A1, “1H-Imidazoquinoline Derivatives as Prote In Kinase Inhibitors” (NOVARTIS AG, priority 2003, published 2008).

How the values were obtained:
Type in all cases: biochemical
S6K1 = target: T1, S6K1 (Homo sapiens, UniProt P23443, T412E); assay: S6K1 kinase inhibition (S6K1ΔCT/T412E, TR-FRET); conditions: read-out: IC50 Range Class, inhibition of S6K1
T1 construct: His (N); made in house; host or cells: Sf9 insect cells (baculovirus, pFastBacHT A), co-infected with GST-PDK1 virus
T1 sequence (P23443 1-421 T412E): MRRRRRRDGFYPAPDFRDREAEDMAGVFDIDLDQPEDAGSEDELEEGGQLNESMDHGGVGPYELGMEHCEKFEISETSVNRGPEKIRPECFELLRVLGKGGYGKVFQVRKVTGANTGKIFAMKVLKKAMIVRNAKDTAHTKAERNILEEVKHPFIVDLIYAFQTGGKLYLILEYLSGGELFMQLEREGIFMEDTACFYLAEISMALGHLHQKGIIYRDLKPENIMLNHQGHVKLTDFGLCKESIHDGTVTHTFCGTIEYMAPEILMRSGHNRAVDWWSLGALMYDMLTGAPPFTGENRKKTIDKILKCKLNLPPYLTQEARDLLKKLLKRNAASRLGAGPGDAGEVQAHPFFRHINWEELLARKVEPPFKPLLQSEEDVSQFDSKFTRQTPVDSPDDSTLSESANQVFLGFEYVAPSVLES
Excerpt: The DNA fragment encoding S6K1ΔCT/T412E is subcloned to the baculovirus donor vector pFastBacHT A to generate a recombinant baculovirus that expresses S6K1ΔCT/T412E. Transfer vectors for S6K1ΔCT/T412E are transfected into the DH10Bac cell line (GIBCO). After selection of white colonies, they are used for viral DNA (bacmid) preparation. Sf9 cells (American Type Culture Collection) cells are then transfected with the viral DNA using Cellfectin reagent. Virus-containing media is collected from the transfected cell culture and is used for infection to increase its titer. For large-scale protein expression, Sf9 cells are co-infected with S6K1ΔCT/T412E and GST-PDK1 virus-containing media with MOI of 2.25 and 1, respectively. After 3 days, the cells expressing the recombinant enzyme are resuspended in the culture medium with a sterilized cell scraper and harvested by centrifugation. The cells are resuspended in 5 volumes of cell pellet of Extraction Buffer (50 mM MOPS pH 7.0, containing 300 mM NaCl, 0.05% Tween-20, 10 mM sodium pyrophosphate, 50 mM β-glycerophosphate, 0.2 mM cantharidic acid and 1× complete-EDTA protease inhibitor cocktail) and then disrupted with 15 strokes of a Dounce homogenizer followed by sonication on ice. The homogenate is centrifuged at 4° C. for 60 minutes at 48,000×g. The supernatant is clarified with a 5 μm filter and subjected to purification with TALON Superflow Resin (Clontech). First, 1 mL of TALON resin per 5 mL of the supernatant was equilibrated with the Extraction Buffer and resuspended in the supernatant followed by gentle agitation for 20 minutes at RT. After centrifugation at 700×g for 5 minutes, supernatant is removed. The resin is washed twice by adding 10 bed volumes of the Extraction Buffer, agitating for 10 minutes at RT, centrifugating at 700×g for 5 minutes, and discarding the supernatant. The resin is then resuspended with the same volume of the Extraction Buffer and transferred to an disposable chromatography column. The packed column is washed once with 10 bed volumes of the Extraction Buffer and additionally with the same volume of Wash Buffer (5 mM imidazole in the Extraction Buffer). Then, the His-tagged S6K1ΔCT/T412E is eluted with four bed volumes of Elution Buffer (150 mM imidazole in the Extraction Buffer).
Measure of enzyme activity: The kinase assay with purified S6K1ΔCT/T412E is performed with TR-FRET (Time-Resolved Fluorescene Resonance Energy Transfer) technology. First, ATP-dependent phosphorylation of the biotinylated substrate peptide corresponding to residues 229-242 of S6 ribosomal protein (Biot-AKRRRLSSLRASTS) is carried out for 1 hour at 37° C. in […] under humidified air. The kinase reaction mixture of the final volume of 9 μL contains 2.57 ng of purified S6K1ΔCT/T412E protein, 50 mM MOPS (pH 7.0), 0.1 mM EGTA, 0.01 mM Na3VO4, 0.05% Tween-20, 0.01% BSA, 1 mM DTT, 10 mM MgCl2, 3 μM ATP, 0.5 μM biotinylated substrate peptide, 1% of DMSO or the text compounds of the formula (I) at the required concentration in 1% DMSO. For measurement of background, 20 mM of EDTA is added to the reaction mixture. […] Phosphorylated peptide indicative of kinase activity is quantitated by exciting the sample at 330 nm and comparing donor emission at 615 nm and acceptor emission at 665 nm by 2101 EnVision HTS multilabel plate reader (Perkin Elmer). […]

PKB = PKB (Homo sapiens, UniProt P31749); assay: PKB kinase inhibition (PDK1-activated GST-PKB, 33P peptide assay); conditions: read-out: IC50 Range Class, inhibition of PKB
PKB, sequence (P31749 whole entry): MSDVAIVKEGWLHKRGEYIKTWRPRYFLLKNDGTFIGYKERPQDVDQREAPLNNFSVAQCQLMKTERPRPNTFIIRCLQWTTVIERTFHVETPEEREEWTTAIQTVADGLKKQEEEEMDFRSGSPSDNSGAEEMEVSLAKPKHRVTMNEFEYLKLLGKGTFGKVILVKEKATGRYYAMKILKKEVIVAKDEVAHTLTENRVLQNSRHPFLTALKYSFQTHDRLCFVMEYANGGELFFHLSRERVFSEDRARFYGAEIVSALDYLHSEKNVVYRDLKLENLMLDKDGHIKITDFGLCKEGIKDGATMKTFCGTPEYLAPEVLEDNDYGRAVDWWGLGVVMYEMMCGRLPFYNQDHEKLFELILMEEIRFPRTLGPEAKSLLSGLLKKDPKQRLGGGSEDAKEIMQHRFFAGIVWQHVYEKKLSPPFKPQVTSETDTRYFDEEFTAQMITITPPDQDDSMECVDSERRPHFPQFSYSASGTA
Protocol: GST-PKB [100 ng, specific activity (SA): 0.2 nmole/mg/min.] is incubated for 30 minutes at room temperature (RT) with purified recombinant GST-PDK1 (1 ng, SA: 2 nmole/min./mg). The activation is performed as follows: 0.1 μg of GST-PDK1 (0.05 μL) and 10 μg of GST-PKB (0.45 μL) are mixed in a total volume of 0.75 μL containing 15 μM ATP, 3 mM MgCl2, 20 mM hepes (pH 7.6) for 30 minutes at RT. The reaction is subsequently stopped by adding 0.25 μL containing 30% gycerol (w/w) and 0.06 μL of 500 mM EDTA. 100-500 ng (0.01-0.05 μL) activated GST-PKB is incubated in a final volume of 30 μL with 10 μM of the RRPRTRSFS peptide, 10 mM Mg-acetate, 50 mM MOPS (PH 7.5), 1 mM DTT and 300 μg/mL BSA, 20 μM ATP (0.1 μCi γ-^33P-ATP). The reaction is carried out for 30 minutes at RT in the presence of either 1% DMSO or the text compound of the formula (I) at the required concentration in 1% DMSO. The reaction is terminated by the addition of 20 μL 125 mM EDTA. Thirty (30) μL of each sample is spotted onto P81 Whatman and the paper squares processed. See Ferrari and Thomas, Methods Enzymol, Vol. 200, pp. 159-169 (1991). IC50 values are calculated by linear regression analysis of the percentage inhibition of each compound in duplicate.

RET = target: T2, RET (Homo sapiens, UniProt P07949); assay: RET kinase inhibition (33P filter assay, GST-wtRET or GST-RET-Men2B); conditions: for IC50: read-out: IC50 Range Class, inhibition of RET
T2 construct: fused on or other part: N-terminal GST tag (from vector pFB-GSTX3)
T2 sequence (P07949 1-1072 isoform P07949-2): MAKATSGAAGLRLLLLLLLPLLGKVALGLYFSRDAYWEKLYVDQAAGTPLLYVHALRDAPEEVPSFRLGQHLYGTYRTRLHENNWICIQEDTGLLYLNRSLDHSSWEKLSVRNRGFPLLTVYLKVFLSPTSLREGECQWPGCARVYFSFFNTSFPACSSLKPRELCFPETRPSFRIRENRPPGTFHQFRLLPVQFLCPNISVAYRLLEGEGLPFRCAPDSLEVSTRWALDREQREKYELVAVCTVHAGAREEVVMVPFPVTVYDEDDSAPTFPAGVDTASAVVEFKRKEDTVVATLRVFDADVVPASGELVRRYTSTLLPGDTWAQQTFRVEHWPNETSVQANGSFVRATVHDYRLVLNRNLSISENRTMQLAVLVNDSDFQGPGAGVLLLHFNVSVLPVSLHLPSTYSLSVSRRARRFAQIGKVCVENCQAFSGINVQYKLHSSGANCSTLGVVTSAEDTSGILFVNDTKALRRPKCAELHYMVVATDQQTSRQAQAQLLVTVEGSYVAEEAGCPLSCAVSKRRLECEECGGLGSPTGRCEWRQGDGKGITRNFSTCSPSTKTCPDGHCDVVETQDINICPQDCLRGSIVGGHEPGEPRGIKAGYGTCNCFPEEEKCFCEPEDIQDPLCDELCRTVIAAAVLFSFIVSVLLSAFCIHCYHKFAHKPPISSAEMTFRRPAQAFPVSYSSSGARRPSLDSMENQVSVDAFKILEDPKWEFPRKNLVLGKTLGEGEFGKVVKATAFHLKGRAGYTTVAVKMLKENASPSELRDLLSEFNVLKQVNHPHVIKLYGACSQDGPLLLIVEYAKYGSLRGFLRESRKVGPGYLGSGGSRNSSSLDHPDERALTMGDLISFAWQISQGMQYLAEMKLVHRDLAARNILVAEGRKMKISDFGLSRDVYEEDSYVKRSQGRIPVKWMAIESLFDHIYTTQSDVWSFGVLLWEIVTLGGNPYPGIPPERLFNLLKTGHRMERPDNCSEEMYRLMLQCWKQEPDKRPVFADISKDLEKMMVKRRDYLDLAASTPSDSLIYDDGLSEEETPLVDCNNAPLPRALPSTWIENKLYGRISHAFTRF
Protocol: RET kinase inhibition is determined as follows: The baculovirus donor vector pFB-GSTX3 is used to generate a recombinant baculovirus that expresses the amino acid region 658-1072 (Swiss Prot No. Q9BTB0) of the intra-cytoplasmic kinase domain of human RET-Men2A which corresponds to the wild-type kinase domain of RET (wtRET) and RET-Men2B, which differs from the wtRET by the activating mutation in the activation loop M918T. The coding sequences for the cytoplasmic domain of wtRET and RET-Men2B are amplified by PCR from the plasmids pBABEpuro RET-Men2A and pBABEpuro RET-Men2B, respectively which are received from Dr. James Fagin, College of Medicine, University of Cincinnati. The amplified DNA fragments and the pFB-GSTX3 vector are made compatible for ligation by digestion with SaII and KpnI. Ligation of these DNA fragments results in the baculovirus donor plasmid pFB-GX3-RET-Men2A and pFB-GX3-RET-Men2B, respectively.
Production of virus: Transfer vectors containing the kinase domains are transfected into the DH10Bac cell line (GIBCO) and plated on selective agar plates. Colonies without insertion of the fusion sequence into the viral genome (carried by the bacteria) are blue. Single, white colonies are picked and viral DNA (bacmid) isolated from the bacteria by standard plasmid purification procedures. Sf9 cells or Sf21 (American Type Culture Collection) cells are then transfected in 25 cm^2 flasks with the viral DNA using Cellfectin reagent.
Determination of small scale protein expression in Sf9 cells: Virus-containing media is collected from the transfected cell culture and used for Infection to increase its titer. Virus-containing media obtained after two rounds of infection is used for large-scale protein expression. For large-scale protein expression 100 cm^2 round tissue culture plates are seeded with 5×10^7 cells/plate and infected with 1 mL of virus-containing media (approximately 5 MOls). After 3 days, the cells are scraped off the plate and centrifuged at 500 rpm for 5 minutes. Cell pellets from 10-20, 100 cm^2 plates, are re-suspended in 50 mL of ice-cold lysis buffer (25 mM tris-HCl, pH 7.5, 2 mM EDTA, 1% NP-40, 1 mM DTT, 1 mM P MSF). The cells are stirred on ice for 15 minutes and then centrifuged at 5,000 rpms for 20 minutes.
Purffication of GST-tagged proteins: The centrifuged cell lysate is loaded onto a 2 mL glutathione-sepharose column (Pharmacia) and washed 3× with 10 mL of 25 mM tris-HCl, pH 7.5, 2 mM EDTA, 1 mM DTT, 200 mM NaCl. The GST-tagged proteins are then eluted by 10 applications (1 mL each) of 25 mM tris-HCl, pH 7.5, 10 mM reduced-glutathione, 100 mM NaCl, 1 mM DTT, 10% glycerol and stored at −70° C.
Measure of enzyme activity: Tyrosine protein kinase assays with either purified GST-wtRET or GST-RET-Men2B protein are carried out in a final volume of 30 μL containing 15 ng of either GST-wtRET or GST-RET-Men2B protein, 20 mM tris-HCl, pH 7.5, 1 mM MnCl2, 10 mM MgCl2, 1 mM DTT, 3 μg/mL poly(Glu, Tyr) 4:1, 1% dimethyl sulfoxide (DMSO), 2.0 μM ATP (γ-[^33P]-ATP 0.1 μCi). The activity is assayed in the presence or absence of inhibitors, by measuring the Incorporation of ^33P from [γ^33P] ATP into poly(Glu, Tyr) 4:1. The assay is carried out in 96-well plates at ambient temperature for 15 minutes under conditions described below and terminated by the addition of 20 μL of 125 mM EDTA. […] Membranes are counted after drying at ambient temperature, mounting in Packard TopCount 96-well frame, and addition of 10 μL/well of Microscint™ (Packard). […]

Structure (SMILES) | IC50 (PKB) | IC50 (RET) | other results
Cc1cc(CCN)ccc1-n1cnc2cnc3ccc(-c4ccc5[nH]ccc5c4)cc3c21 [Example 22, 2-{4-[8-(1H-indol-5-yl)-Imidazo[4,5-c]quinolin-1-yl]-3-methyl-phenyl}-ethylamine] |  |  | IC50 (S6K1): ≤ 0.5 µM
NCCc1ccc(-n2cnc3cnc4ccc(-c5ccc(O)cc5)cc4c32)c(C(F)(F)F)c1 [Example 30, 4-{1-[4-(2-Amino-ethyl)-2-trifluoromethyl-phenyl]-1H-imidazo[4,5-c]quinolin-8-yl}-phenol] |  |  | IC50 (S6K1): ≤ 0.5 µM
NCCc1ccc(-n2cnc3cnc4cc(F)c(-c5cccs5)cc4c32)cc1 [Example 61, 2-[4-(7-Fluoro-8-thiophen-2-yl-imidazo[4,5-c]quinolin-1-yl)-phenyl]-ethylamine] | ≤ 0.5 µM |  | 
NCCc1ccc(-n2cnc3cnc4cc(F)c(-c5ccc6[nH]ccc6c5)cc4c32)c(Cl)c1 [Example 83, 2-{3-Chloro-4-[7-fluoro-8-(1H-indol-5-yl)-imidazo[4,5-c]quinolin-1-yl]-phenyl}-ethylamine] |  |  | IC50 (S6K1): ≤ 0.5 µM
COc1ccc(OC)c(-c2ccc3ncc4ncn(-c5ccccc5F)c4c3c2)c1 [Example 119, 8-(2,5-Dimethoxy-phenyl)-1-(2-fluoro-phenyl)-1H-imidazo[4,5-c]quinoline] |  | 0.5 to 1 µM | 
Fc1ccccc1-n1cnc2cnc3ccc(-c4ccncc4)cc3c21 [Example 125, 1-(2-Fluoro-phenyl)-8-pyridin-4-yl-1H-imidazo[4,5-c]quinoline] |  |  | IC50 Range Class, inhibition of RET (RET): B/A
CN(C)Cc1cccc(-c2ccc3ncc4ncn(-c5ccccc5F)c4c3c2)c1 [Example 129, {3-[1-(2-Fluoro-phenyl)-1H-imidazo[4,5-c]quinolin-8-yl]-benzyl}-dimethyl-amine] |  | ≤ 0.5 µM | 

Continued, in another order:

IC50 (PKB) | IC50 (RET) | Structure (SMILES) | other results
≤ 0.5 µM |  | NCCc1ccc(-n2cnc3cnc4cc(F)c(-c5ccc6[nH]ccc6c5)cc4c32)cc1 [Example 64, 2-{4-[7-Fluoro-8-(1H-indol-5-yl)-imidazo[4,5-c]quinolin-1-yl]-phenyl}-ethylamine] | 
≤ 0.5 µM |  | NCCCc1ccc(-n2cnc3cnc4cc(F)c(-c5ccsc5)cc4c32)cc1 [Example 74, 3-[4-(7-Fluoro-8-thiophen-3-yl-imidazo[4,5-c]quinolin-1-yl)-phenyl]-propylamine] | 
≤ 0.5 µM |  | NCCc1ccc(-n2cnc3cnc4cc(Cl)c(-c5ccsc5)cc4c32)cc1 [Example 90, 2-[4-(7-Chloro-8-thiophen-3-yl-imidazo[4,5-c]quinolin-1-yl)-phenyl]-ethylamine] | 
 | ≤ 0.5 µM | Oc1ccc(-c2ccc3ncc4ncn(-c5ccccc5F)c4c3c2)cc1 [Example 127, 4-[1-(2-Fluoro-phenyl)-1H-imidazo[4,5-c]quinolin-8-yl]-phenol] | 
 | 0.5 to 1 µM | c1ccc(-n2cnc3cnc4ccc(-c5cccc(N6CCNCC6)c5)cc4c32)cc1 [Example 134, 1-Phenyl-8-(3-piperazin-1-yl-phenyl)-1H-imidazo[4,5-c]quinoline] | 
